These results are taken from EP2578218A1, “Antiviral efficacy of disodium 2,6-dimethyl-1,4-dihydropyridine-3,5-bis(carbonyloxyacetate) and its derivatives” (Grindeks, A Joint Stock Company, priority 2011, dated 2013).

This experiment has as its system influenza virus (H3N2). Kind of experiment: antiviral efficacy on MDCK cell line in vitro. It is filed as cell-based. The conditions noted are these: MDCK cells infected with influenza virus (H3N2); test compound present from 1 hour after viral infection until end of culture; over a wide concentration range (FIG.3-5). As for the experimental part:
For influenza virus, MDCK cells that were permissive of viral replication were grown up to sufficient numbers in growth media with supplements. Once MDCK cells were confluent they were seeded into 96 well flat-bottomed plates (2x10^4 cells/well), incubated overnight and then infected with the influenza virus (H3N2) at the correct concentration and incubated in order to allow productive infection of the MDCK cells.
After the initial seeding of cells overnight (200 µl/well), the medium was removed and influenza viral infection performed in a smaller volume (25µl/well) for 1 hour. After the 1 hour infection, the viral inoculum was removed and replaced with medium (200p1/well) containing test compound. Thus, disodium 2,6-dimethyl-1,4-dihydropyridine-3,5-bis(carbonyloxyacetate) and its derivatives - disodium 2,4,6-trimethyl-1,4-dihydropyridine-3,5-bis-carbonyloxyacetate and disodium 4-ethyl-2,6-dimethyl-1,4-dihydropyridine-3,5-bis(carbonyloxyacetate) (compounds with general formula I), were presented from 1 hour after viral infection until the end of the culture period.
The antiviral efficacy of disodium 2,6-dimethyl-1,4-dihydropyridine-3,5-bis(carbonyloxyacetate) and its derivatives - disodium 2,4,6-trimethyl-1,4-dihydropyridine-3,5-bis(carbonyloxyacetate) and disodium 4-ethyl-2,6-dimethyl-1,4-dihydropyridine-3,5-bis(carbonyloxyacetate) (compounds with general formula I), were compared with already known medicaments, such as 1-methyl-2-phenylthiomethyl-3-carbethoxy-4-dimethylaminomethyl-5-oxybromoindole monohydrate hydrochloride and Oseltamivir, and results were represented in FIG.1., FIG.2., FIG.3., FIG.4. and FIG.5.
Take `CC1=C(C(=O)OCC(=O)O)C(C)C(C(=O)OCC(=O)O)=C(C)N1` [disodium 2,4,6-trimethyl-1,4-dihydropyridine-3,5-bis-carbonyloxyacetate]: the antiviral efficacy result is reported as “effective against influenza”.

In the case of `CC1=C(C(=O)OCC(=O)O)CC(C(=O)OCC(=O)O)=C(C)N1` [disodium 2,6-dimethyl-1,4-dihydropyridine-3,5-bis(carbonyloxyacetate)], the antiviral efficacy entry is recorded as “effective against influenza”. The value for `CCC1C(C(=O)OCC(=O)O)=C(C)NC(C)=C1C(=O)OCC(=O)O` [disodium 4-ethyl-2,6-dimethyl-1,4-dihydropyridine-3,5-bis(carbonyloxyacetate)] was “effective against influenza”.
